Results taken from ChEMBL document CHEMBL3046091, “Synthesis and antimicrobial activities of 2-azetidinyl-4-quinazolinone derivatives of diclofenac analogue” (2011).

How the values were obtained:
Type in all cases: functional
Pseudomonas aeruginosa [1] = test: Antibacterial activity against Pseudomonas aeruginosa ATCC 9027 at 50 ug/ml by cup-plate method; details: read-out: IZ
Pseudomonas aeruginosa [2] = test: Antibacterial activity against Pseudomonas aeruginosa ATCC 9027 at 50 to 100 ug/ml by cup-plate method
Pseudomonas aeruginosa [3] = test: Antibacterial activity against Pseudomonas aeruginosa ATCC 9027 at 100 ug/ml by cup-plate method; details: read-out: IZ
Bacillus subtilis [4] = test: Antibacterial activity against Bacillus subtilis ATCC 6633 at 50 ug/ml by cup-plate method; details: read-out: IZ
Bacillus subtilis [5] = test: Antibacterial activity against Bacillus subtilis ATCC 6633 at 50 to 100 ug/ml by cup-plate method
Bacillus subtilis [6] = test: Antibacterial activity against Bacillus subtilis ATCC 6633 at 100 ug/ml by cup-plate method; details: read-out: IZ
Staphylococcus aureus [7] = test: Antibacterial activity against Staphylococcus aureus ATCC 9144 at 50 to 100 ug/ml by cup-plate method
Staphylococcus aureus [8] = test: Antibacterial activity against Staphylococcus aureus ATCC 9144 at 50 ug/ml by cup-plate method; details: read-out: IZ
Staphylococcus aureus [9] = test: Antibacterial activity against Staphylococcus aureus ATCC 9144 at 100 ug/ml by cup-plate method; details: read-out: IZ
Candida albicans [10] = test: Antifungal activity against Candida albicans ATCC 10231 at 100 ug/ml by cup-plate method; details: read-out: IZ
Candida albicans [11] = test: Antifungal activity against Candida albicans ATCC 10231 at 50 ug/ml by cup-plate method; details: read-out: IZ
Escherichia coli [12] = test: Antibacterial activity against Escherichia coli ATCC 25922 at 50 ug/ml by cup-plate method; details: read-out: IZ
Escherichia coli [13] = test: Antibacterial activity against Escherichia coli ATCC 25922 at 50 to 100 ug/ml by cup-plate method
Escherichia coli [14] = test: Antibacterial activity against Escherichia coli ATCC 25922 at 100 ug/ml by cup-plate method; details: read-out: IZ

Structure (SMILES)	zone of inhibition at 50 µg/mL (Pseudomonas aeruginosa [1]) [mm]	Activity (Pseudomonas aeruginosa [2]) [%]	zone of inhibition at 100 µg/mL (Pseudomonas aeruginosa [3]) [mm]	zone of inhibition at 50 µg/mL (Bacillus subtilis [4]) [mm]	Activity (Bacillus subtilis [5]) [%]	zone of inhibition at 100 µg/mL (Bacillus subtilis [6]) [mm]	Activity (Staphylococcus aureus [7]) [%]	zone of inhibition at 50 µg/mL (Staphylococcus aureus [8]) [mm]	zone of inhibition at 100 µg/mL (Staphylococcus aureus [9]) [mm]	zone of inhibition at 100 µg/mL (Candida albicans [10]) [mm]	zone of inhibition at 50 µg/mL (Candida albicans [11]) [mm]	zone of inhibition at 50 µg/mL (Escherichia coli [12]) [mm]	Activity (Escherichia coli [13]) [%]	zone of inhibition at 100 µg/mL (Escherichia coli [14]) [mm]
O=C1C(Cl)C(c2cccc([N+](=O)[O-])c2)N1c1ccc(-n2c(Cc3ccccc3Nc3c(Cl)cccc3Cl)nc3ccc(Br)cc3c2=O)cc1 (configuration not stated)	2	36.75	4	2	32.65	4	29.73	1	3	2	1	2	32.65	4
CCN(CC)c1ccc(C2C(Cl)C(=O)N2c2ccc(-n3c(Cc4ccccc4Nc4c(Cl)cccc4Cl)nc4ccc(Br)cc4c3=O)cc2)c(O)c1 (configuration not stated)	0	0	0	0	0	0	0	0	0	0	0	0	0	0
CCN(CC)c1ccc(/C=N/c2ccc(-n3c(Cc4ccccc4Nc4c(Cl)cccc4Cl)nc4ccc(Br)cc4c3=O)cc2)c(O)c1	0	0	0	0	0	0	0	0	0	0	0	0	0	0
O=C1C(Cl)C(c2ccccc2[N+](=O)[O-])N1c1ccc(-n2c(Cc3ccccc3Nc3c(Cl)cccc3Cl)nc3ccc(Br)cc3c2=O)cc1 (configuration not stated)	3	46.93	6	3	42.68	6	36.75	2	4	2	1	3	37.56	5
O=C1C(Cl)C(c2ccccc2O)N1c1ccc(-n2c(Cc3ccccc3Nc3c(Cl)cccc3Cl)nc3ccc(Br)cc3c2=O)cc1 (configuration not stated)	4	50	6	3	42.68	6	50.98	3	6	0	0	3	43.53	6
O=C1C(Cl)C(c2ccc(O)cc2)N1c1ccc(-n2c(Cc3ccccc3Nc3c(Cl)cccc3Cl)nc3ccc(Br)cc3c2=O)cc1 (configuration not stated)	4	58.33	7	3	35.08	5	44.44	3	5	0	0	2	37.89	5
O=C1C(Cl)C(c2ccccc2Cl)N1c1ccc(-n2c(Cc3ccccc3Nc3c(Cl)cccc3Cl)nc3ccc(Br)cc3c2=O)cc1 (configuration not stated)	4	58.33	7	3	41.48	6	65.76	4	8	3	2	3	44.56	6
O=C1C(Cl)C(c2ccc(Cl)cc2)N1c1ccc(-n2c(Cc3ccccc3Nc3c(Cl)cccc3Cl)nc3ccc(Br)cc3c2=O)cc1 (configuration not stated)	5	61.79	8	5	57.44	8	66.67	5	8	5	2	3	51.09	7
